The target in data set [1] is T1, norepinephrine transporter (NET) (Oryctolagus cuniculus, UniProt G1TDF9).
T1 construct: from tissue; host or cells: heart of living New Zealand white rabbits (in vivo PET, gamma counting)
Nature of the data set: PET imaging and cardiac uptake in rabbits with or without DMI blocking. The class given is in vivo, New Zealand white rabbits. The settings on record: DMI 1.5 mg/kg 10 min before tracer, SUV, n = 5. Here is the method: (§1) Male Wistar rats (n = 4, weighing 250-400 g) and New Zealand white rabbits (n = 5, weighing 3.2-3.6 kg) were used for cardiac uptake studies. Anesthesia was induced and maintained during the experiment by 2% isoflurane. Large animal PET studies were performed on cynomolgus monkeys (n = 4, weighing 3.9-4.2 kg). Induction of anesthesia in NHPs was conducted by intramuscular injection of ketamine (1.5 mg/kg) and xylazine (0.6 mg/kg) to allow the preparation and handling of the animals. After a tracheal cannula was inserted, 1.5% sevoflurane (SEVOFLURANE Inhalation Solution, Pfizer Japan Inc., Tokyo, Japan) vaporized with 100% oxygen was inhaled, and the tidal volume and respiratory rate of the ventilator were monitored and kept in the normal range throughout the imaging sessions with an anesthesia workstation (Apollo®, Drägerwerk AG & Co. KGaA, Lübeck, Germany).
^18F-AF78 (3-4 MBq) and ^123I-MIBG (approximately 2.5 MBq) were injected into rabbits maintained under anesthesia via the marginal ear vein in a single dose. The NET blocker DMI (1.5 mg/kg) was injected 10 min before radiotracer administration in the blocking study. A 10-min dynamic scan was initiated immediately after the radiotracer injection. The animals were euthanized immediately after the scan, and the organs of interest were harvested and measured in a gamma counter to calculate biodistribution. […]

The nature of data set [2]: Dynamic PET imaging and biodistribution of the radiotracer in healthy nonhuman primates. In kind it is in vivo, cynomolgus monkeys. The settings on record: NHP controls. As for the experimental part: as §1
NHPs were maintained under anesthesia during imaging and were studied with a PET scanner (PCA-2000A, Toshiba Medical Systems Corporation, Tochigi, Japan). After a 5-min transmission scan and a bolus intravenous (i.v.) injection of the radiotracer ^18F-AF78 (approximately 20 MBq) via the saphenous vein, a 60-min dynamic PET scan (10 s × 12, 30 s × 6, and 300 s × 11) was initiated. For the blocking study, DMI was injected 10 min before radiotracer administration, after which the PET scan commenced immediately (n = 4). For the DMI chase study, DMI (1 mg/kg, n = 4) was injected 10 min after radiotracer administration, while the PET scan was initiated simultaneously with radiotracer administration. The catecholamine releasing stimulator tyramine (TYR) was also used in a chase protocol, with 50 µg/kg each injection (n = 4) injected intermittently (5 times, 10-min intervals) after radiotracer administration. The radiotracers ^18F-AF78 and ^123I-MIBG were formulated in saline for the animal studies. Control animals received normal saline. The inhibitors PhB, DMI and TYR were first dissolved in a minimum amount of DMSO and diluted with saline for administration with a final concentration of DMSO lower than 10%. The experimental timeline is provided in the supplementary material.
(§2) PET imaging for rats, rabbits and NHPs was performed from the chest to the upper abdomen, including the heart, lungs, liver and part of the intestines. The reconstructed images were analyzed using AMIDE imaging software (version 1.0.1). For kinetic studies in rats and NHPs, the tissue uptake was determined as standardized uptake values (SUVs), from which time-activity curves of different organs, e.g., heart, blood, lung and liver, were generated with transmission computed tomography images for topographic localization.

The subject of data set [3] is norepinephrine transporter (NET). Nature of the data set: PET kinetic studies in nonhuman primates with DMI blocking, DMI chase and tyramine chase. The settings on record: NHP heart, 60 min. In kind it is in vivo, cynomolgus monkeys. As for the experimental part: as §1
NHPs were maintained under anesthesia during imaging and were studied with a PET scanner (PCA-2000A, Toshiba Medical Systems Corporation, Tochigi, Japan). After a 5-min transmission scan and a bolus intravenous (i.v.) injection of the radiotracer ^18F-AF78 (approximately 20 MBq) via the saphenous vein, a 60-min dynamic PET scan (10 s × 12, 30 s × 6, and 300 s × 11) was initiated. For the blocking study, DMI was injected 10 min before radiotracer administration, after which the PET scan commenced immediately (n = 4). For the DMI chase study, DMI (1 mg/kg, n = 4) was injected 10 min after radiotracer administration, while the PET scan was initiated simultaneously with radiotracer administration. […]
as §2

Data set [4] has as its target T2, norepinephrine transporter (NET) (Homo sapiens, UniProt P23975).
T2 construct: cells naturally expressing NET; host or cells: SK-N-SH human neuroblastoma cells
Put plainly: Competitive cell uptake assay against 3H-norepinephrine in SK-N-SH human neuroblastoma cells. In kind it is cell-based. An excerpt:
SK-N-SH (human neuroblastoma cell line) cells naturally expressing NET were cultivated according to the instructions from the supplier (Sigma-Aldrich Chemie GmbH, Taufkirchen, Germany). […] Cell lysates were collected and measured in a liquid scintillation analyzer.

Data set [5] has as its target T3, norepinephrine transporter (NET) (Rattus norvegicus, UniProt Q63380).
T3 construct: from tissue; host or cells: heart of living Wistar rats (in vivo PET, ex vivo tissue counting)
Nature of the data set: PET imaging and biodistribution in rats with or without PhB blocking. The class given is in vivo, Wistar rats. As for the experimental part: as §1
A small-animal PET system (microPET FOCUS 120, Siemens, Erlangen, Germany) was used for the rat studies. […] The organ-to-blood ratios were calculated following weight and decay correction of tissue counts.
PET imaging for rats, rabbits and NHPs was performed from the chest to the upper abdomen, including the heart, lungs, liver and part of the intestines. The reconstructed images were analyzed using AMIDE imaging software (version 1.0.1). […]

On the set-up of data set [6]: method as in PMID 28322043. The settings on record: rhesus macaque monkeys, not before 90 min after radiotracer injection; cited from earlier work.
Setting [7] is: SK-N-SH cells, 60 min, 37 °C, mean ± SD, n = 4, read-out: IC50, competitive cell uptake affinity against 3H-NE.

Here are results for seven compounds from publication PMC9169360, “Molecular Imaging-Derived Biomarker of Cardiac Nerve Integrity — Introducing High NET Affinity PET Probe ^18F-AF78” (Theranostics, 2022).

The IC50 is the midpoint of a concentration-inhibition curve.

Read-outs that look alike come from different tables or passages of the source.

T2 sequence (P23975 whole entry): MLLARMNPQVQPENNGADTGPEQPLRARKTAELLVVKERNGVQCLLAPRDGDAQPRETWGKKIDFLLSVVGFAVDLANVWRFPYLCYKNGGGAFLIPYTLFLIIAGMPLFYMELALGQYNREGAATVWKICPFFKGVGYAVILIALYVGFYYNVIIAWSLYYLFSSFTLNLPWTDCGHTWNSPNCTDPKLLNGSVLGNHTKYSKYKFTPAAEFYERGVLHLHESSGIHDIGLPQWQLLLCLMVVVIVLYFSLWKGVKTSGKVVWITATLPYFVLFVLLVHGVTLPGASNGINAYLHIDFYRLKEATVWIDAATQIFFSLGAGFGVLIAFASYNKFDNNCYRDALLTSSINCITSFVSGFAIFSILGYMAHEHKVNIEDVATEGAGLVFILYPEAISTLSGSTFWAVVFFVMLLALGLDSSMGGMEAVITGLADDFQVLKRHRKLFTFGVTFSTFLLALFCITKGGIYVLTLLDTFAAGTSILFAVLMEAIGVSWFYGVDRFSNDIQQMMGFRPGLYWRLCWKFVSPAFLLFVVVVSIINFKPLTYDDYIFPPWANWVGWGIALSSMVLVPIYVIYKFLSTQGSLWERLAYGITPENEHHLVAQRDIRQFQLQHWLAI
T1 sequence (G1TDF9 1-617): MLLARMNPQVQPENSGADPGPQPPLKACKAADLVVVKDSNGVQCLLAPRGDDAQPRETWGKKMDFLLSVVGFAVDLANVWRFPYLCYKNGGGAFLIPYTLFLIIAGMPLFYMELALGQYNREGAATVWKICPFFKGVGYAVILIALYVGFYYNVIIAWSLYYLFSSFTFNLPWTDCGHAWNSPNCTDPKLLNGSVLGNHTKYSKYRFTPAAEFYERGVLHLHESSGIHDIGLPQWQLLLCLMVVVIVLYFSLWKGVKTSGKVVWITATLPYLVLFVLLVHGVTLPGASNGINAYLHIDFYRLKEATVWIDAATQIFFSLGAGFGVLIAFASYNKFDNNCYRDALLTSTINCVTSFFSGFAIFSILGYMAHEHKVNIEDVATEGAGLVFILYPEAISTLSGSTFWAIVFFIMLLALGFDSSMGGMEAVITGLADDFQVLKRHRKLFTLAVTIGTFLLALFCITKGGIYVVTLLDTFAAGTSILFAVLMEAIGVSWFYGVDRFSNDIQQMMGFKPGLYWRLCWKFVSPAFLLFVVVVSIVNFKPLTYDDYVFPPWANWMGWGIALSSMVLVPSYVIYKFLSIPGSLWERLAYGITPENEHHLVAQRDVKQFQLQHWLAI
T3 sequence (Q63380 1-617): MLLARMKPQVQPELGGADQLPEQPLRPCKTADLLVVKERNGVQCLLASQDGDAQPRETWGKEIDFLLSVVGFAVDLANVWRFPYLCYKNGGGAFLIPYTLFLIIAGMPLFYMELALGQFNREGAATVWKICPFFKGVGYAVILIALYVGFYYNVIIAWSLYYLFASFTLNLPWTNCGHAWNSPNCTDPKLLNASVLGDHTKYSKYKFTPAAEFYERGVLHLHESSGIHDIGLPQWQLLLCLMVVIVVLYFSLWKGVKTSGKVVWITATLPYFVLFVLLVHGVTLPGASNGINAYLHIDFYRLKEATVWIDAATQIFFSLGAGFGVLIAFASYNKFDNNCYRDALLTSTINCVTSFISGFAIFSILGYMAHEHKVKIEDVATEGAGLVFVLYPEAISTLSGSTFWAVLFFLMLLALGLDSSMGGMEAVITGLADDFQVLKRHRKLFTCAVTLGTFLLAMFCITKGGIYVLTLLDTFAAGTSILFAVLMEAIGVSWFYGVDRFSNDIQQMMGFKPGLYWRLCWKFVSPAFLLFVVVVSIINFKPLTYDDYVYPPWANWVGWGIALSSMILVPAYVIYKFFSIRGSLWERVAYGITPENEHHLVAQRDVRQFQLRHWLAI

As to `N=C(N)NCCc1ccc(OCCCF)c(F)c1` [AF78, 1-(3-fluoro-4-(3-fluoropropoxy)phenethyl)guanidine], the “cardiac uptake in the DMI pretreatment group” value in data set [1] is “reduced significantly”. Moreover, in data set [2] (5 min postinjection), the heart-to-blood pool ratio was 2.03 ± 0.53 and the heart-to-liver ratio was found to be 0.38 ± 0.29. The heart-to-liver ratio in data set [2] (30 min postinjection) came out at 0.95 ± 0.20. In addition, in data set [2] (60 min postinjection), the “absolute SUV in the blood pool” value was 0.72 ± 0.34 SUV, the “absolute SUV in the liver” value was 0.91 ± 0.47 SUV, the heart-to-blood pool ratio was determined as 1.82 ± 0.71 and the heart-to-liver ratio is reported as 1.60 ± 0.38. Also, the “cardiac SUV” value in data set [2] (heart, 5 min postinjection) came to 1.74 ± 0.24 SUV. Besides, in data set [2] (heart, 60 min postinjection), the “cardiac uptake, mean SUV” value is 1.46 ± 0.18 SUV. In data set [3] (DMI 1 mg/kg 10 min after tracer), the “cardiac mean SUV after DMI chase” value is listed as 1.40 ± 0.07 SUV. In addition, in data set [3] (DMI injected 10 min before tracer), the “cardiac mean SUV after DMI blocking” value came to 0.45 ± 0.05 SUV. Further, the “cardiac mean SUV after intermittent TYR chase” value in data set [3] (tyramine 50 µg/kg 5 times at 10-min intervals) was 0.92 ± 0.20 SUV. Also, in data set [4] (setting [7]), the IC50 was found to be 0.42 ± 0.14 µM. Besides, in data set [4] (ratio of IC50 values, SK-N-SH cells), the “fold higher affinity of AF78 relative to MIBG” value is given as 4.2 fold. For the same compound, the “cardiac uptake upon PhB pretreatment” value in data set [5] (PhB 50 mg/kg 10 min before tracer, time-activity curves) is recorded as “decreased rapidly”. The “organ-to-blood ratios, early (10 min) versus late (60 min) phase” value in data set [5] (biodistribution study, controls) is given as “unchanged”.

Take `N=C(N)NCc1cccc(I)c1` [MIBG, metaiodobenzylguanidine, reference compound]: the “cardiac uptake in the DMI pretreatment group” value in data set [1] was “reduced significantly”. In data set [4] (setting [7]), the half-inhibitory concentration (IC50) was 1.75 ± 0.47 µM.

`N=C(N)NCCc1ccc(O)c(F)c1` [3F-PHPG, 3-fluoro-4-hydroxyphenethylguanidine]: the heart-to-liver ratio in data set [6] is 2.5 ± 0.3. In addition, the 50% inhibitory concentration (IC50) in data set [4] (setting [7]) stood at 0.78 ± 0.06 µM.

As to `N=C(N)NCc1ccc(OCCCF)c(Br)c1` [FBBG, flubrobenguane], the IC50 in data set [4] (setting [7]) is 2.28 ± 1.05 µM.

As for `N=C(N)NCCc1ccc(F)c(O)c1` [4F-MHPG, 4-fluoro-3-hydroxyphenethylguanidine], in data set [6], the heart-to-liver ratio is 2.2 ± 0.8. In addition, the half-inhibitory concentration (IC50) in data set [4] (setting [7]) worked out at 2.78 ± 1.22 µM.

Regarding `NCCc1cc(O)c(O)cc1F` [6F-DA, 6-fluorodopamine], the half-inhibitory concentration (IC50) in data set [4] came out at 1.2 ± 0.33 µM.

As to `CN[C@@H](C)[C@H](O)c1cccc(O)c1` [HED, metahydroxyephedrine], the IC50 in data set [4] came out at 0.39 ± 0.11 µM.
